Test results as given in US10550111B2, “Pyrimidine urea compound containing isoxazolines and use thereof” (SHENYANG SINOCHEM AGROCHEMICALS R&D CO., LTD, priority 2014, dated 2020).

Experiments:
Assay type in all cases: in vivo
Zinnia elegans Jacq. = test: Bioassay of herbicidal activity in greenhouse (further screening); details: post-emergence
Experimental: (§1) Determination of herbicidal activity of compounds of the present invention against weeds was carried out by the following procedures:
(§2) Seeds of monocotyledonous and dicotyledonous weeds were sown in nutrition soil in paper pot (7 cm diameter), covered with soil in 1 cm and grown in the greenhouse under good growth conditions (temperature, atmospheric humidity, water supply). The compounds of the present invention as emulsifiable concentrate, were applied in pre-emergence and post-emergence treatment by track sprayer (Engineer Research Ltd., pressure 1.95 kg/cm^2, volume 500 L/hm^2, track speed 1.48 km/h). Pre-emergence treatment was conducted after seeding 24 hours and post-emergence treatment was done when the respective weeds reached predetermined leaf stage (grass weed 2- to 3-leaf stage, broad-leaf weed 2- to 4-leaf stage), the state of growth of the respective weeds were visually observed to determine the growth inhibition rate (%) in accordance with the following evaluation standard.
(§3) Growth inhibition rate (%): 0=no discernible action: 100=all weeds dead or not emerged.

[1] = tested on: Echinochloa crus-galli (L.) Beauv.; test: as above; details: post-emergence
Experimental: as §1, §2, §3

[2] = tested on: Abutilon theophrasti Medic.; test: as above; details: post-emergence
Experimental: as §1, §2, §3

[3] = tested on: Setaria glauca (L.) Beauv.; test: as above; details: post-emergence
Experimental: as §1, §2, §3

[4] = tested on: broad-leaf weeds and grass weeds; test: General screening of herbicidal activity in greenhouse; details: 1000 g a.i./hm^2;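 further: 0 means no visible effect and 100 means all weeds dead or not emerged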
Experimental: as §1, §2, §3

Structure (SMILES)	Growth inhibition rate, Post-emergence treatment, Zinnia elegans Jacq. (Zinnia elegans Jacq.; dose 7.5 g a.i./hm^2)	Growth inhibition rate, Post-emergence treatment, Zinnia elegans Jacq. (Zinnia elegans Jacq.; dose 15 g a.i./hm^2)	Growth inhibition rate, Post-emergence treatment, Zinnia elegans Jacq. (Zinnia elegans Jacq.; dose 30.0 g a.i./hm^2)	Growth inhibition rate, Post-emergence treatment, Zinnia elegans Jacq. (Zinnia elegans Jacq.; dose 60.0 g a.i./hm^2)	Growth inhibition rate, Post-emergence treatment, Zinnia elegans Jacq. (Zinnia elegans Jacq.; dose 120.0 g a.i./hm^2)	Growth inhibition rate, Post-emergence treatment, Echinochloa crus-galli (L.) Beauv. ([1]; dose 7.5 g a.i./hm^2)	Growth inhibition rate, Post-emergence treatment, Echinochloa crus-galli (L.) Beauv. ([1]; dose 15 g a.i./hm^2)	Growth inhibition rate, Post-emergence treatment, Echinochloa crus-galli (L.) Beauv. ([1]; dose 30.0 g a.i./hm^2)	Growth inhibition rate, Post-emergence treatment, Echinochloa crus-galli (L.) Beauv. ([1]; dose 60.0 g a.i./hm^2)	Growth inhibition rate, Post-emergence treatment, Echinochloa crus-galli (L.) Beauv. ([1]; dose 120.0 g a.i./hm^2)	Growth inhibition rate, Post-emergence treatment, Abutilon theophrasti Medic. ([2]; dose 7.5 g a.i./hm^2)	Growth inhibition rate, Post-emergence treatment, Abutilon theophrasti Medic. ([2]; dose 15 g a.i./hm^2)	Growth inhibition rate, Post-emergence treatment, Abutilon theophrasti Medic. ([2]; dose 30.0 g a.i./hm^2)	Growth inhibition rate, Post-emergence treatment, Abutilon theophrasti Medic. ([2]; dose 60.0 g a.i./hm^2)	Growth inhibition rate, Post-emergence treatment, Abutilon theophrasti Medic. ([2]; dose 120.0 g a.i./hm^2)	Growth inhibition rate, Post-emergence treatment, Setaria glauca (L.) Beauv. ([3]; dose 7.5 g a.i./hm^2)	Growth inhibition rate, Post-emergence treatment, Setaria glauca (L.) Beauv. ([3]; dose 15 g a.i./hm^2)	Growth inhibition rate, Post-emergence treatment, Setaria glauca (L.) Beauv. ([3]; dose 30.0 g a.i./hm^2)	Growth inhibition rate, Post-emergence treatment, Setaria glauca (L.) Beauv. ([3]; dose 60.0 g a.i./hm^2)	Growth inhibition rate, Post-emergence treatment, Setaria glauca (L.) Beauv. ([3]; dose 120.0 g a.i./hm^2)	other results
CC(C)OC(=O)C1(C)CC(c2cc(-n3c(=O)cc(C(F)(F)F)n(C)c3=O)c(F)cc2Cl)=NO1 (stereo not drawn) [Compound 10]	100%	100%	100%	100%	100%	90%	98%	100%	100%	100%	100%	100%	100%	100%	100%	90%	100%	100%	100%	100%	pre-emergence and post-emergence herbicidal activity against broad-leaf weeds and grass weeds [4]: good
CCCOC(=O)C1(C)CC(c2cc(-n3c(=O)cc(C(F)(F)F)n(C)c3=O)c(F)cc2Cl)=NO1 (stereo not drawn) [Compound 7]	55%	60%	75%	98%	100%	25%	90%	98%	100%	100%	75%	98%	100%	100%	100%	55%	90%	90%	100%	100%	pre-emergence and post-emergence herbicidal activity against broad-leaf weeds and grass weeds [4]: good
Cn1c(C(F)(F)F)cc(=O)n(-c2cc(C3=NOC(C)(C(=O)OCC(F)(F)F)C3)c(Cl)cc2F)c1=O (stereo not drawn) [Compound 396]	30%	60%	75%	100%	100%	20%	55%	95%	100%	100%	98%	100%	100%	100%	100%	25%	55%	85%	98%	100%	pre-emergence and post-emergence herbicidal activity against broad-leaf weeds and grass weeds [4]: good
